Consider 12 compounds from ChEMBL document CHEMBL2331095, “Synthesis and biological activity of 5-chloro-N⁴-substituted phenyl-9H-pyrimido[4,5-b]indole-2,4-diamines as vascular endothelial growth factor receptor-2 inhibitors and antiangiogenic agents” (Bioorg Med Chem, 2013).

Experiment [1] has as its target Platelet-derived growth factor receptor beta (Homo sapiens, UniProt P09619). Nature of the experiment: Inhibition of PDGFRbeta in human SF539 cells assessed as inhibition of […] tyrosine phosphorylation incubated for 60 mins prior to PDGF-BB-activation measured 10 mins by ELISA. A general note: ELISA stands for enzyme-linked immunosorbent assay.
The target of experiment [2] is Vascular endothelial growth factor receptor 2 (Homo sapiens, UniProt P35968). It counts as cell-based, U-251.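 Note: human U251 cells, compound preincubated 60 min before VEGF stimulation, VEGF-induced VEGFR2 tyrosine phosphorylation measured by ELISA after 10 min, value is concentration inhibiting this phosphorylation.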
For experiment [3], the target named is T1, Epidermal growth factor receptor (Homo sapiens, UniProt P00533). Nature of the experiment: Ratio of sunitinib IC50 to compound IC50 for EGFR in human A431 cells. Format: cell-based. The note with it: A-431.
Experiment [4] concerns the target T1, Epidermal growth factor receptor. It counts as cell-based, A-431.
The subject of the next experiment is A-431. Nature of the experiment: Cytotoxicity against human A431 cells incubated for 12 hrs followed by compound wash out measured 36 hrs by CYQUANT assay. It counts as functional, cell-based.

Some results are limits rather than exact numbers.

Chain of Vascular endothelial growth factor receptor 2 (P35968 whole entry): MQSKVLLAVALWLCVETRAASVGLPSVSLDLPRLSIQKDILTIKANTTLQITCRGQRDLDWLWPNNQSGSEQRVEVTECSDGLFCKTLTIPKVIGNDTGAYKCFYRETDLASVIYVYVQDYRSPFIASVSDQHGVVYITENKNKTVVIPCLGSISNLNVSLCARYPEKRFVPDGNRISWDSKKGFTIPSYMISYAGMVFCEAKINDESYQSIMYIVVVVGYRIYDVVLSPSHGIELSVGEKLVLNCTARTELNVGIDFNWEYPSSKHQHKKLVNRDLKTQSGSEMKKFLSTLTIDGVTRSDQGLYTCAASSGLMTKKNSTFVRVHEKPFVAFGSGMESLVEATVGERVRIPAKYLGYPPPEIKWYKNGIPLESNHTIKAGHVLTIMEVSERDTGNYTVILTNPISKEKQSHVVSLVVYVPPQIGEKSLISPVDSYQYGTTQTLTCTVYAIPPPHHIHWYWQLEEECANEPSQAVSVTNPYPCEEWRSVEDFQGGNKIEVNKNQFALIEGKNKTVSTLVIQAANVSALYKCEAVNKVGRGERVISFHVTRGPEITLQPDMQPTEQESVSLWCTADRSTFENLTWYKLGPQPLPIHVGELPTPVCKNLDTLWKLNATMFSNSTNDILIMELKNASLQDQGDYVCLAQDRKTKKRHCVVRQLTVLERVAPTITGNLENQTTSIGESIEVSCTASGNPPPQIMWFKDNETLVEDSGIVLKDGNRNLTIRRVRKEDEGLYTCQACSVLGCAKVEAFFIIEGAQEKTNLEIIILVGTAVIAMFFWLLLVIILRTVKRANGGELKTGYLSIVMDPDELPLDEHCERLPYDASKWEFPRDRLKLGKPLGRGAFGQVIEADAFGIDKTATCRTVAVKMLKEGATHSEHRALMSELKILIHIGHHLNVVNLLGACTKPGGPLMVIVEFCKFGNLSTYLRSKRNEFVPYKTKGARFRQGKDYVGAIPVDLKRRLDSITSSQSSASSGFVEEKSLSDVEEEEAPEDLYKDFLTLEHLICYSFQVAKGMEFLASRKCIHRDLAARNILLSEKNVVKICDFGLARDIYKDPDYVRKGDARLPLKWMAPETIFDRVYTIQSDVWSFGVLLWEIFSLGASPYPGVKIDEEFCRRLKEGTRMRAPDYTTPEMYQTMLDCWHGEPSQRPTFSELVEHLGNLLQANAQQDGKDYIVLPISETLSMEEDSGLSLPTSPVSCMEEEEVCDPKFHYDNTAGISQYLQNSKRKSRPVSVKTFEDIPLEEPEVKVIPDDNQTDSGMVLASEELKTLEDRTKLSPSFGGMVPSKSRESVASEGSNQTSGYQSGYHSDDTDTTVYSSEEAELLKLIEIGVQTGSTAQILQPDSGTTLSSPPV
T1 sequence (P00533 whole entry): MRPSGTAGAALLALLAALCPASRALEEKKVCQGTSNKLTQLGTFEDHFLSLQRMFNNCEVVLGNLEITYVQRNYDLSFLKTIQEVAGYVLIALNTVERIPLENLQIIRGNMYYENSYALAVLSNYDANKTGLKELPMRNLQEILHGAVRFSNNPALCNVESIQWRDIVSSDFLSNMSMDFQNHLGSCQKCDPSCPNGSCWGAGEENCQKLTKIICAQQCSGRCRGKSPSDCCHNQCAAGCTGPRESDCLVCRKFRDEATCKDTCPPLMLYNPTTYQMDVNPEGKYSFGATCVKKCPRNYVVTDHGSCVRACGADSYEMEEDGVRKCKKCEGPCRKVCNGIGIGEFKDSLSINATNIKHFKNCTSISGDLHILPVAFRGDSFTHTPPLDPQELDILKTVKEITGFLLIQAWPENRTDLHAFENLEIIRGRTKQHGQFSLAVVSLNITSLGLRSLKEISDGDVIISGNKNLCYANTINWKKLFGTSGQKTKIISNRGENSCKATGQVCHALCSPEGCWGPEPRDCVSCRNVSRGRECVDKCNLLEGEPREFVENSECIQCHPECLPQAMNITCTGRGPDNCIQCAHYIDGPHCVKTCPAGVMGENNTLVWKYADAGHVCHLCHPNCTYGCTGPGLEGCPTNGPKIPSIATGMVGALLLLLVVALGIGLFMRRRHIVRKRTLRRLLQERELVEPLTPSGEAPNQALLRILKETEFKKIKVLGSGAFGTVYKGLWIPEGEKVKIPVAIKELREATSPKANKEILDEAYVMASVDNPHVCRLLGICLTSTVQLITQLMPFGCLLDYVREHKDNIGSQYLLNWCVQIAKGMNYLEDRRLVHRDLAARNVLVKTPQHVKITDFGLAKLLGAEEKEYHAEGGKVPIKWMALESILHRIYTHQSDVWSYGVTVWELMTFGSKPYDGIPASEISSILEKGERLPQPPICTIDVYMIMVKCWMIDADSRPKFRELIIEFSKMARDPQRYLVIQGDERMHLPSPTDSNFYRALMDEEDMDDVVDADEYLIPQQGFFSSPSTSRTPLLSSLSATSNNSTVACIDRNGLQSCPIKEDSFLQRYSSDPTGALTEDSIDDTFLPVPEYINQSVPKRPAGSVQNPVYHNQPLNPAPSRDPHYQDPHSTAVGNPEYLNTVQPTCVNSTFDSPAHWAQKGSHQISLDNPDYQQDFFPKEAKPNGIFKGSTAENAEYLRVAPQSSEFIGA
Chain of Platelet-derived growth factor receptor beta (P09619 whole entry): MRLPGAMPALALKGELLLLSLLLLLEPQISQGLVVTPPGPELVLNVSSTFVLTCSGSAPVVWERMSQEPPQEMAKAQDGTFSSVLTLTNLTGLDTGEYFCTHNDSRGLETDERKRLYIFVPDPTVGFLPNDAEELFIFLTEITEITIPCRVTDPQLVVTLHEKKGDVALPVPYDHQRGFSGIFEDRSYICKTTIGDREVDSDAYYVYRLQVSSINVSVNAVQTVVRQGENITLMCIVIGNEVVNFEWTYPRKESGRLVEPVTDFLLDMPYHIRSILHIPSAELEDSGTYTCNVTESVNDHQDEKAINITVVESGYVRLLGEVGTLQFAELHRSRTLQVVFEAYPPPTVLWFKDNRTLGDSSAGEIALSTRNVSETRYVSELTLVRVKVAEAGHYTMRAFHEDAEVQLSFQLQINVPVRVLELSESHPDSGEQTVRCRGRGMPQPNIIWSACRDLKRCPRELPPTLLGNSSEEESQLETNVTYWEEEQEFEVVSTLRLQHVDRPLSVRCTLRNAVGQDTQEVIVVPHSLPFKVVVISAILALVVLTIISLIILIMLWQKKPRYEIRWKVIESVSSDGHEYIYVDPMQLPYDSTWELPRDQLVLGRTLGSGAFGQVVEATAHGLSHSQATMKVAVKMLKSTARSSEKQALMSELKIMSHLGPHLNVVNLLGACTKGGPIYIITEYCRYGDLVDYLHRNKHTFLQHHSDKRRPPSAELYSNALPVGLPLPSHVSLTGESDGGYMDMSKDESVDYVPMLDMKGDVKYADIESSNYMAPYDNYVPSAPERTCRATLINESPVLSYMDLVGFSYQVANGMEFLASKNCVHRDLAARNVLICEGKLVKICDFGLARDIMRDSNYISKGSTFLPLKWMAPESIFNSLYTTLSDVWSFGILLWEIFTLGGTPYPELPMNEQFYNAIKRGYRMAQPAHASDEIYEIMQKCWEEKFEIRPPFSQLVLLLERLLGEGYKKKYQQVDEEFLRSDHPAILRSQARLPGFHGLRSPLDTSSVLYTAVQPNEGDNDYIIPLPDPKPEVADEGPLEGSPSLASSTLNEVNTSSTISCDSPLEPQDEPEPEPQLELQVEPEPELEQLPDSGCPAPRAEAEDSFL

A word on the IC50: it is the concentration needed to halve the response being measured. Take `CC(C)c1ccc(Nc2nc(N)nc3[nH]c4cccc(Cl)c4c23)cc1`: the IC50 in experiment [1] is over 200 µM; in experiment [2], 30.3 µM.

With `COc1cccc(Nc2nc(N)nc3[nH]c4cccc(Cl)c4c23)c1`, in experiment [3], the Ratio IC50 was found to be 2.1. Besides, the half-inhibitory concentration (IC50) in experiment [1] came to 50.5 µM; in experiment [2], 70.1 µM; in experiment [4], 82.9 µM.

Regarding `Nc1nc(Nc2ccc(Cl)cc2F)c2c(n1)[nH]c1cccc(Cl)c12`, the concentration for half-maximal inhibition (IC50) in experiment [1] was over 200 µM.

Turning to `CC(C)(C)C(=O)Nc1nc(Nc2ccc(Cl)cc2F)c2c(n1)[nH]c1cccc(Cl)c12`, the IC50 in experiment [1] was 171 µM; in experiment [2], 89.1 µM; in experiment [4], over 200 µM; in the experiment with A-431, over 250 µM.

In the case of `COc1cccc(Nc2nc(NC(=O)C(C)(C)C)nc3[nH]c4cccc(Cl)c4c23)c1`, the IC50 is 196 µM in experiment [1], 41 µM in experiment [2], 130 µM in experiment [4] and over 250 µM with A-431.

Consider `CC(C)(C)C(=O)Nc1nc(Nc2ccc(Cl)cc2)c2c(n1)[nH]c1cccc(Cl)c12`, for which the IC50 in experiment [1] was over 200 µM; in experiment [2], 21.3 µM; in experiment [4] it was 58.7 µM.

As to `Nc1nc(Nc2ccccc2)c2c(n1)[nH]c1cccc(Cl)c12`, the IC50 is over 200 µM in experiment [1], 124 µM in experiment [2], over 200 µM in experiment [4] and 193 µM in the experiment with A-431.

Take `Nc1nc(Nc2ccc(Cl)cc2)c2c(n1)[nH]c1cccc(Cl)c12`: the IC50 in experiment [1] turned out to be 196 µM; in experiment [2], 13.2 µM; in experiment [4] it was 63.6 µM.

For the compound `CC(C)(C)C(=O)Nc1nc(Nc2cccc(F)c2)c2c(n1)[nH]c1cccc(Cl)c12`, the Ratio IC50 in experiment [3] stood at 5.5. Besides, the IC50 in experiment [1] was over 200 µM; in experiment [2], 31.2 µM; in experiment [4], 30.8 µM; in the experiment with A-431, over 250 µM.

Regarding `Nc1nc(Nc2cccc(F)c2)c2c(n1)[nH]c1cccc(Cl)c12`, the IC50 in experiment [1] was 172 µM; in experiment [2] it was 86.1 µM; in experiment [4], over 200 µM.

For `CC(C)(C)C(=O)Nc1nc(Nc2ccccc2)c2c(n1)[nH]c1cccc(Cl)c12`, the results for the IC50 in experiment [1], in experiment [2] and in experiment [4] were 70.6 µM, 192 µM and 115 µM, respectively.

On to `CC(C)c1ccc(Nc2nc(NC(=O)C(C)(C)C)nc3[nH]c4cccc(Cl)c4c23)cc1`, for which the IC50 in experiment [1] was over 200 µM; in experiment [2] it was 47.8 µM; in experiment [4], 39.2 µM; in the experiment with A-431 it was over 250 µM.
